The structures appear in SMILES notation. In brackets after ≈: the same amount, converted by molar mass. Bounds are passed on as bounds.

As usually defined, the MIC is the lowest concentration that inhibits growth of the organism.

For the assay, the system named is Mycobacterium tuberculosis. The assay is described as follows: Antibacterial activity multi-drug resistant Mycobacterium tuberculosis H37Rv ATCC 35822 assessed as inhibition of bacterial growth incubated for 2 days by CLSI protocol based broth microdilution method. Particulars: H37Rv ATCC 35822, 48 h, time 2 day. The format is functional. A general note: Broth dilution looks for growth in wells or tubes with falling amounts of substance.

Consider `COc1cc(CN2CCN(C(=O)c3cccc(Cl)c3)CC2)nc2ccc(F)cc12`, for which the MIC was greater than 64 mg/L.
As for `COc1cc(CN2CCN(C(=O)c3cccc(F)c3)CC2)nc2ccc(F)cc12`, the figure is greater than 64 mg/L; as for `COc1cc(CN2CCN(S(=O)(=O)c3ccc(Cl)cc3Cl)CC2)nc2ccc(F)cc12`, greater than 64 mg/L.
In the case of `COc1ccc(C(=O)N2CCN(Cc3cc(OC)c4cc(F)ccc4n3)CC2)cc1` it was greater than 64 mg/L; in that of `COc1cc(CN2CCN(S(=O)(=O)c3ccc(C)cc3)CC2)nc2ccc(F)cc12`, greater than 64 mg/L; in that of `COc1ccc2nc(CN3CCN(S(=O)(=O)c4ccc(NC(C)=O)cc4)CC3)cc(OC)c2c1`, greater than 64 mg/L.
As for `COc1cc(CN2CCN(C(=O)c3ccccc3F)CC2)nc2ccc(F)cc12`, the figure is greater than 64 mg/L; as for `COc1ccc2nc(CN3CCN(S(=O)(=O)c4ccccc4C(F)(F)F)CC3)cc(OC)c2c1`, greater than 64 mg/L; as for `COc1ccc2nc(CN3CCN(S(=O)(=O)c4cccs4)CC3)cc(OC)c2c1`, greater than 64 mg/L.
For the compound `COc1ccc2nc(CN3CCN(C(=O)c4ccccc4F)CC3)cc(OC)c2c1`, the MIC was greater than 64 mg/L.
As for `COc1ccc2nc(CN3CCN(S(=O)(=O)c4c(C)cc(C)cc4C)CC3)cc(OC)c2c1`, the figure is greater than 64 mg/L; as for `CNS(=O)(=O)N1CCN(Cc2cc(OC)c3cc(OC)ccc3n2)CC1`, greater than 64 mg/L.
With `COc1cccc(C(=O)N2CCN(Cc3cc(OC)c4cc(OC)ccc4n3)CC2)c1`, the MIC is greater than 64 mg/L.
As for `COc1ccc2nc(CN3CCN(C(=O)c4ccccc4OC)CC3)cc(OC)c2c1`, the figure is greater than 64 mg/L; as for `COc1cc(CN2CCN(S(=O)(=O)c3ccccc3F)CC2)nc2ccc(F)cc12`, 4 mg/L (≈ 9.23 µM); as for `COc1ccc2nc(CN3CCN(C(=O)c4ccc(Cl)c(Cl)c4)CC3)cc(OC)c2c1`, greater than 64 mg/L.
In the case of `COc1ccc2nc(CN3CCN(S(=O)(=O)c4cccc5ccccc45)CC3)cc(OC)c2c1` it was greater than 64 mg/L; in that of `COc1ccc2nc(CN3CCN(C(=O)C4CCC4)CC3)cc(OC)c2c1`, greater than 64 mg/L.
As for `COc1ccc(S(=O)(=O)N2CCN(Cc3cc(OC)c4cc(F)ccc4n3)CC2)cc1`, the figure is greater than 64 mg/L; as for `COc1cc(CN2CCN(S(=O)(=O)c3ccc(NC(C)=O)cc3)CC2)nc2ccc(F)cc12`, greater than 64 mg/L; as for `COc1ccc2nc(CN3CCN(C(=O)c4c(Cl)cccc4Cl)CC3)cc(OC)c2c1`, greater than 64 mg/L.
`COc1cc(CN2CCN(C(=O)c3ccccc3C)CC2)nc2ccc(F)cc12`: the MIC is greater than 64 mg/L.
In the case of `COc1ccc2nc(CN3CCN(S(=O)(=O)c4ccccc4F)CC3)cc(OC)c2c1`, the MIC came out at 0.5 mg/L (≈ 1.12 µM).
In the case of `COc1ccc2nc(CN3CCN(S(=O)(=O)c4c(F)c(F)c(F)c(F)c4F)CC3)cc(OC)c2c1` it was greater than 64 mg/L.
In the case of `COc1ccc2nc(CN3CCN(S(=O)(=O)c4ccc(F)cc4)CC3)cc(OC)c2c1` it was greater than 64 mg/L; in that of `COc1ccc2nc(CN3CCN(C(=O)c4ccc(Cl)cc4Cl)CC3)cc(OC)c2c1`, greater than 64 mg/L.
In the case of `C[C@H]1COc2c(N3CCN(C)CC3)c(F)cc3c(=O)c(C(=O)O)cn1c23.C[C@H]1COc2c(N3CCN(C)CC3)c(F)cc3c(=O)c(C(=O)O)cn1c23.O` [LEVOFLOXACIN] it was 4 mg/L; in that of `CO[C@H]1/C=C/O[C@@]2(C)Oc3c(C)c(O)c4c(O)c(c(/C=N/N5CCN(C)CC5)c(O)c4c3C2=O)NC(=O)/C(C)=C\C=C\[C@H](C)[C@H](O)[C@@H](C)[C@@H](O)[C@@H](C)[C@H](OC(C)=O)[C@@H]1C` [RIFAMPIN], greater than 64 mg/L.

These data come from ChEMBL document CHEMBL5230166, “Novel quinoline-piperazine hybrids: the design, synthesis and evaluation of antibacterial and antituberculosis properties” (RSC Med Chem, 2023).
